Assay results reported in PubChem BioAssay AID1745844 (Carcinogenic Potency Database (CPDB), 2022).
Calls of active or inactive are those of the source. The rule behind the calls is not given here.

Tested on: rodent lifetime carcinogenesis bioassay, tumor incidence TD50
Assay: chronic cancer bioassays in animals – CPDB, compiled studies (AID 1745844)

CC(=O)NCc1nc(-c2ccc([N+](=O)[O-])o2)no1
TD50 (rat, strain Sprague-Dawley, females, in feed, site: any site (literature study), lesion: several types, types named in the paper, dosed 46 weeks, study length 66 weeks): 5.2 mg/kg/day
TD50 (rat, strain Sprague-Dawley, females, in feed, site: kidney/pelvis, lesion: transitional-cell carcinoma, dosed 46 weeks, study length 66 weeks): 59.6 mg/kg/day
TD50 (rat, strain Sprague-Dawley, females, in feed, site: lung, lesion: alveolar-cell carcinoma, dosed 46 weeks, study length 66 weeks): 59.6 mg/kg/day
TD50 (rat, strain Sprague-Dawley, females, in feed, site: mammary gland, lesion: adenocarcinoma, dosed 46 weeks, study length 66 weeks): 10.3 mg/kg/day
TD50 (rat, strain Sprague-Dawley, females, in feed, site: mammary gland, lesion: several types, types named in the paper, dosed 46 weeks, study length 66 weeks): 6.35 mg/kg/day

FC(F)OC(Cl)C(F)(F)F (stereo unspecified)
carcinogen call (mouse, strain Swiss Webster, females, inhaled, site: liver, lesion: basophil adenoma, dosed 78 weeks, study length 81 weeks): negative (inactive)
TD50 (mouse, strain Swiss Webster, females, inhaled, site: lung, lesion: alveolar-cell adenoma, dosed 78 weeks, study length 81 weeks): 30000 mg/kg/day (inactive)
carcinogen call (mouse, strain Swiss Webster, males, inhaled, site: liver, lesion: basophil adenoma, dosed 78 weeks, study length 81 weeks): negative (inactive)
carcinogen call (mouse, strain Swiss Webster, males, inhaled, site: lung, lesion: alveolar-cell adenoma, dosed 78 weeks, study length 81 weeks): negative (inactive)

N=c1ccn2c(n1)O[C@H]1[C@H](O)[C@@H](CO)O[C@H]12
carcinogen call (rat, strain Wistar, females, i.p., site: any site (literature study), lesion: one or several types, types not named, dosed 52 weeks, study length 52 weeks): negative (inactive)
carcinogen call (rat, strain Wistar, females, i.p., site: any site (literature study), lesion: several types, types named in the paper, dosed 104 weeks, study length 104 weeks): negative (inactive)
carcinogen call (rat, strain Wistar, males, i.p., site: any site (literature study), lesion: one or several types, types not named, dosed 52 weeks, study length 52 weeks): negative (inactive)
carcinogen call (rat, strain Wistar, males, i.p., site: any site (literature study), lesion: several types, types named in the paper, dosed 104 weeks, study length 104 weeks): negative (inactive)

CC(C)n1c(/C=C/[C@H](O)C[C@H](O)CC(=O)O)c(-c2ccc(F)cc2)c2ccccc21
TD50 (rat, strain Charles River CD (Sprague-Dawley), females, by gavage, site: liver, lesion: hepatocellular adenoma, dosed 104 weeks, study length 104 weeks): 2780 mg/kg/day
TD50 (rat, strain Charles River CD (Sprague-Dawley), females, by gavage, site: liver, lesion: hepatocellular carcinoma, dosed 104 weeks, study length 104 weeks): 916 mg/kg/day
TD50 (rat, strain Charles River CD (Sprague-Dawley), females, by gavage, site: stomach, lesion: papilloma, dosed 104 weeks, study length 104 weeks): 916 mg/kg/day
TD50 (rat, strain Charles River CD (Sprague-Dawley), males, by gavage, site: stomach, lesion: papilloma, dosed 104 weeks, study length 104 weeks): 610 mg/kg/day
TD50 (rat, strain Charles River CD (Sprague-Dawley), males, by gavage, site: stomach, lesion: squamous-cell carcinoma, dosed 104 weeks, study length 104 weeks): 919 mg/kg/day
TD50 (rat, strain Charles River CD (Sprague-Dawley), males, by gavage, site: thyroid gland, lesion: follicular adenocarcinoma, dosed 104 weeks, study length 104 weeks): 258 mg/kg/day
TD50 (rat, strain Charles River CD (Sprague-Dawley), males, by gavage, site: thyroid gland, lesion: follicular-cell adenoma, dosed 104 weeks, study length 104 weeks): 125 mg/kg/day

ClC1C2(Cl)C3C4C5OC5C5C4C1(Cl)C(Cl)(C53)C2(Cl)Cl (stereo unspecified)
TD50 (mouse, strain B6C3F1, females, in feed, site: any site (literature study), lesion: several types, types named in the paper, dosed 80 weeks, study length 92 weeks): 0.743 mg/kg/day (inactive)
TD50 (mouse, strain B6C3F1, females, in feed, site: liver, lesion: hepatocellular adenoma + hepatocellular carcinoma + neoplastic nodule, dosed 80 weeks, study length 92 weeks): 2.53 mg/kg/day
TD50 (mouse, strain B6C3F1, females, in feed, site: lung, lesion: alveolar/bronchiolar adenoma + alveolar/bronchiolar carcinoma, dosed 80 weeks, study length 92 weeks): 6.78 mg/kg/day
TD50 (mouse, strain B6C3F1, males, in feed, site: any site (literature study), lesion: several types, types named in the paper, dosed 80 weeks, study length 93 weeks): 0.494 mg/kg/day (inactive)
TD50 (mouse, strain B6C3F1, males, in feed, site: liver, lesion: hepatocellular adenoma + hepatocellular carcinoma + neoplastic nodule, dosed 80 weeks, study length 93 weeks): 1.96 mg/kg/day
TD50 (mouse, strain B6C3F1, males, in feed, site: lung, lesion: alveolar/bronchiolar adenoma + alveolar/bronchiolar carcinoma, dosed 80 weeks, study length 93 weeks): 0.465 mg/kg/day
TD50 (rat, strain Osborne-Mendel, females, in feed, site: any site (literature study), lesion: several types, types named in the paper, dosed 69 weeks, study length 111 weeks): 0.327 mg/kg/day
TD50 (rat, strain Osborne-Mendel, females, in feed, site: mammary gland, lesion: adenoma + fibroadenoma, dosed 69 weeks, study length 111 weeks): 0.612 mg/kg/day (inactive)
TD50 (rat, strain Osborne-Mendel, males, in feed, site: all sites, lesion: hemangioma, dosed 80 weeks, study length 109 weeks): 2.89 mg/kg/day (inactive)
carcinogen call (rat, strain Osborne-Mendel, males, in feed, site: any site (literature study), lesion: several types, types named in the paper, dosed 80 weeks, study length 111 weeks): negative (inactive)
TD50 (rat, strain Osborne-Mendel, males, in feed, site: liver, lesion: hepatocellular adenoma + hepatocellular carcinoma + neoplastic nodule, dosed 80 weeks, study length 111 weeks): 7.72 mg/kg/day

CC(F)(Cl)Cl
TD50 (rat, strain Sprague-Dawley, males, inhaled, site: any site (literature study), lesion: several types, types named in the paper, dosed 105 weeks, study length 105 weeks): 5790 mg/kg/day
TD50 (rat, strain Sprague-Dawley, males, inhaled, site: testis, lesion: interstitial-cell adenoma, dosed 105 weeks, study length 105 weeks): 5260 mg/kg/day

ClC/C=C/CCl
TD50 (mouse, strain Ha/ICR, females, i.p., site: abdomen, lesion: sarcoma, dosed 76 weeks, study length 76 weeks): 1.52 mg/kg/day

[Cu+2].[O-]c1cccc2cccnc12.[O-]c1cccc2cccnc12
TD50 (mouse, strain B6AKF1, females, oral dosing, site: any site (literature study), lesion: several types, types named in the paper, dosed 76 weeks, study length 76 weeks): 2490 mg/kg/day (inactive)
carcinogen call (mouse, strain B6AKF1, females, oral dosing, site: liver, lesion: hepatoma, dosed 76 weeks, study length 76 weeks): negative (inactive)
carcinogen call (mouse, strain B6AKF1, females, oral dosing, site: lung, lesion: adenoma, dosed 76 weeks, study length 76 weeks): negative (inactive)
TD50 (mouse, strain B6AKF1, males, oral dosing, site: any site (literature study), lesion: several types, types named in the paper, dosed 76 weeks, study length 76 weeks): 11200 mg/kg/day (inactive)
TD50 (mouse, strain B6AKF1, males, oral dosing, site: liver, lesion: hepatoma, dosed 76 weeks, study length 76 weeks): 967 mg/kg/day (inactive)
carcinogen call (mouse, strain B6AKF1, males, oral dosing, site: lung, lesion: adenoma, dosed 76 weeks, study length 76 weeks): negative (inactive)
TD50 (mouse, strain B6C3F1, females, oral dosing, site: any site (literature study), lesion: several types, types named in the paper, dosed 76 weeks, study length 76 weeks): 2490 mg/kg/day (inactive)
carcinogen call (mouse, strain B6C3F1, females, oral dosing, site: liver, lesion: hepatoma, dosed 76 weeks, study length 76 weeks): negative (inactive)
carcinogen call (mouse, strain B6C3F1, females, oral dosing, site: lung, lesion: several types, types named in the paper, dosed 76 weeks, study length 76 weeks): negative (inactive)
TD50 (mouse, strain B6C3F1, males, oral dosing, site: any site (literature study), lesion: several types, types named in the paper, dosed 76 weeks, study length 76 weeks): 2050 mg/kg/day (inactive)
carcinogen call (mouse, strain B6C3F1, males, oral dosing, site: liver, lesion: hepatoma, dosed 76 weeks, study length 76 weeks): negative (inactive)
carcinogen call (mouse, strain B6C3F1, males, oral dosing, site: lung, lesion: several types, types named in the paper, dosed 76 weeks, study length 76 weeks): negative (inactive)

O=C1OC2(c3ccccc31)c1cc(I)c(O)c(I)c1Oc1c2cc(I)c(O)c1I
carcinogen call (mouse, strain Charles River CD1, females, in feed, site: any site (literature study), lesion: benign tumor, dosed 104 weeks, study length 104 weeks): negative (inactive)
carcinogen call (mouse, strain Charles River CD1, females, in feed, site: any site (literature study), lesion: malignant tumor, dosed 104 weeks, study length 104 weeks): negative (inactive)
carcinogen call (mouse, strain Charles River CD1, females, in feed, site: any site (literature study), lesion: several types, types named in the paper, dosed 104 weeks, study length 104 weeks): negative (inactive)
TD50 (mouse, strain Charles River CD1, males, in feed, site: all sites, lesion: lymphocytic lymphoma, dosed 104 weeks, study length 104 weeks): 3140 mg/kg/day (inactive)
TD50 (mouse, strain Charles River CD1, males, in feed, site: any site (literature study), lesion: benign tumor, dosed 104 weeks, study length 104 weeks): 25900 mg/kg/day (inactive)
TD50 (mouse, strain Charles River CD1, males, in feed, site: any site (literature study), lesion: malignant tumor, dosed 104 weeks, study length 104 weeks): 87600 mg/kg/day (inactive)
TD50 (mouse, strain Charles River CD1, males, in feed, site: any site (literature study), lesion: several types, types named in the paper, dosed 104 weeks, study length 104 weeks): 17000 mg/kg/day
TD50 (rat, strain Osborne-Mendel, both sexes, by gavage, site: all sites, lesion: lymphosarcoma, dosed 85 weeks, study length 104 weeks): 122 mg/kg/day (inactive)
carcinogen call (rat, strain Osborne-Mendel, both sexes, by gavage, site: any site (literature study), lesion: malignant tumor, dosed 85 weeks, study length 104 weeks): negative (inactive)
carcinogen call (rat, strain Osborne-Mendel, both sexes, by gavage, site: liver, lesion: one or several types, types not named, dosed 85 weeks, study length 104 weeks): negative (inactive)
TD50 (rat, strain Osborne-Mendel, both sexes, in feed, site: any site (literature study), lesion: malignant tumor, dosed 86 weeks, study length 104 weeks): 14100 mg/kg/day (inactive)
TD50 (rat, strain Osborne-Mendel, both sexes, in feed, site: liver, lesion: hepatoma, dosed 86 weeks, study length 104 weeks): 84900 mg/kg/day (inactive)
carcinogen call (rat, strain Osborne-Mendel, females, in feed, site: any site (literature study), lesion: several types, types named in the paper, dosed 104 weeks, study length 104 weeks): negative (inactive)
TD50 (rat, strain Osborne-Mendel, males, in feed, site: any site (literature study), lesion: several types, types named in the paper, dosed 104 weeks, study length 104 weeks): 4810 mg/kg/day (inactive)
carcinogen call (rat, strain Slc-Wistar, females, in feed, site: any site (literature study), lesion: several types, types named in the paper, dosed 52 weeks, study length 52 weeks): negative (inactive)
carcinogen call (rat, strain Slc-Wistar, females, in feed, site: liver, lesion: one or several types, types not named, dosed 52 weeks, study length 52 weeks): negative (inactive)
carcinogen call (rat, strain Slc-Wistar, males, in feed, site: any site (literature study), lesion: several types, types named in the paper, dosed 52 weeks, study length 52 weeks): negative (inactive)
carcinogen call (rat, strain Slc-Wistar, males, in feed, site: liver, lesion: one or several types, types not named, dosed 52 weeks, study length 52 weeks): negative (inactive)
carcinogen call (rat, strain Sprague-Dawley, females, in feed, site: any site (literature study), lesion: one or several types, types not named, dosed 52 weeks, study length 52 weeks): negative (inactive)
carcinogen call (rat, strain Sprague-Dawley, females, in feed, site: liver, lesion: one or several types, types not named, dosed 52 weeks, study length 52 weeks): negative (inactive)
